Measured values reported in patent US20260265244A1, “HETEROCYCLIC COMPOUNDS AS STING ANTAGONISTS” (Boehringer Ingelheim International GmbH, priority 2022, published 2026).

Molecular target: T1, cGAMP binding domain of wild-type (GRR) human STING, residues 155-341 (Homo sapiens, UniProt Q86WV6, H232R)
T1 construct: His-TEV-hSTING (WT); TEV protease cleavage site (N); made in house; host or cells: E. coli BL21 DE3
Assay: Increase of stability of STING protein against thermal denaturation, Differential Scanning Fluorimetry (DSF)
Protocol: Dye fluorescence is quenched in aqueous environment and increases upon association of the dye with the hydrophobic parts of the unfolding protein. […] The inflection point of the curve represents the “melting” temperature of the protein (Tm) which is calculated numerically using the Boltzmann equation.
Method: The thermal stability of the STING protein was measured using a specific expression construct of the cGAMP binding domain of wild-type (GRR) human STING comprising residues 155-341 and a N-terminal 8×His-tag (SEQ ID NO: 3) in assay buffer containing 20 mM Tris, 150 mM NaCl at pH7.5.
The assay uses Hard-Shell® PCR Plates 384-Well CLR/WHT (Catalog #HSP3805, BIO-RAD), Microseal® ‘B’ Adhesive Seals for PCR Plates (Catalog #MSB-1001, BIO-RAD) and was run on a CFX384 Real-Time System (Bio-Rad).
A DMSO stock solution of SYPRO orange (SIGMA S5692-500UL) was prepared.
Compound stock solutions (10 mM in DMSO) were diluted 1:2 in DMSO to an intermediate compound concentration of 5 mM and then further diluted 1:40 in assay buffer resulting in a compound concentration of 125 μM and 2.5% DMSO.
Fluorescent dye stock solution (5000×SYPRO Orange) was then mixed with target protein and buffer to a concentration of 15 uM Protein and 25×SYPRO Orange. 2 ul of this protein-dye-mixture was added to 8 ul compound solution. Final volume was 10 uL. 3-6 well positions were used as negative control (protein with 2% DMSO). The plates were prepared for duplicate measurement and centrifuged for 2 min at 1000 g. In the measurement, 160 cycles of 0.5° C. were used (temperature ramp 15 s/cycle, 15° C. to 95° C.).
Final Assay concentrations for compound characterization were as follows: 100 uM compound, 3 uM target protein, 5×SYPRO Orange, 2% DMSO in 10 ul. All dispensing steps were performed using a HamiltonStar pipetting robot (Hamilton).
Dissociation curves were processed in Bio-Rad CFX Manager. Peak type was set to “negative”. Compound codes for screen were assigned in the plate layout.
Two replicates of TM measurements were averaged, and the standard deviation was calculated. In cases of SD>1.5° C. the measurement was repeated.
The melting point (Tm) obtained for STING protein alone was subtracted from T obtained for protein incubated with ligand to generate ΔTm values.
Protein production and purification: The protein used for the biophysical experiments was a recombinant human STING protein comprising its cytosolic ectodomain. A codon optimized DNA sequence (for expression in Escherichia coli) encoding amino acid residues 155 to 341 (Swiss Prot Q86WV6) of human STING (WT) was synthesized by GeneArt (Regensburg, Germany) and inserted into a pET17b E. coli expression vector. The protein construct encodes an N-terminal 8×His-tag (SEQ ID NO: 3) followed by tobacco etch virus protease (TEV) cleavage site and the above STING gene sequence. The resulting protein sequence for the used STING variant is listed below:
For expression of recombinant human STING above construct was transformed into E. coli BL21 DE3 strain and grown in shake flasks in LB-medium at 37° C. Expression was induced by addition of isopropyl β-D-1-thiogalactopyranoside to a final concentration of 1 mM and cultures shaken overnight. Cell pellets were centrifuged and stored at −70° C. until further use. Protein was purified by cell thawing in lysis buffer (20 mM TRIS-HCl, pH 8, 300 mM NaCl, 2 mM mercaptoethanol, 20 mM imidazole, Complete Protease Inhibitor (Roche) and DNase (Roche)), followed by metal affinity purification using Ni-NTA resins and elution buffer consisting of 20 mM TRIS-HCl, pH 8, 300 mM NaCl, 2 mM mercaptoethanol, 300 mM imidazole and size exclusion chromatography in running buffer (20 mM TRIS-HCl, pH 8, 100 mM NaCl, 2 mM DTT). The peak fraction was collected and concentrated to 2.5 mg/mL.

T1 sequence (Q86WV6 with tags, fused parts or gaps H232R): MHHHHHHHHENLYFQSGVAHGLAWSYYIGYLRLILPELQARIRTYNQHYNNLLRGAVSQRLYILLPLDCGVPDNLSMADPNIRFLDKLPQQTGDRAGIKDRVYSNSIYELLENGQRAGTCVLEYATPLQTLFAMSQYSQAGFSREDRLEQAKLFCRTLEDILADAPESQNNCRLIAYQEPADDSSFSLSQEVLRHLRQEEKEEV

DSF [K] | Compound
26 | Cc1c(C(C)C)c(-c2cccc3nn(C[C@H](O)c4ccccc4)cc23)nn1-c1cc2cn(C)nc2nc1CN1CCOCC1 [Example 26, (1R)-2-[4-(5-methyl-1-{2-methyl-6-[(morpholin-4-yl)methyl]-2H-pyrazolo[3,4-b]pyridin-5-yl}-4-(propan-2-yl)-1H-pyrazol-3-yl)-2H-indazol-2-yl]-1-phenylethan-1-ol]
28 | Cc1nc2nn(C3CCOC3)cc2cc1-n1nc(-c2cccc3nn(C[C@H](O)c4ccccc4)cc23)c(C(C)C)c1C (stereo partly drawn) [Example 14, (1R)-2-(4-{5-methyl-1-[6-methyl-2-(oxolan-3-yl)-2H-pyrazolo[3,4-b]pyridin-5-yl]-4-(propan-2-yl)-1H-pyrazol-3-yl}-2H-indazol-2-yl)-1-phenylethan-1-ol]
30 | Cc1c(C(C)C)c(-c2cccc3nn(C[C@H](O)c4ccc(OCCN(C)C)cc4)cc23)nn1-c1cc2cn(C)nc2nc1C1CC1 [Example 101]
27 | Cc1nc2nn(C)cc2cc1-n1nc(-c2cccc3nn(C[C@H](O)c4ccc(F)cc4)cc23)c(C(C)C)c1C [Example 46, (1R)-2-[4-(1-{2,6-dimethyl-2H-pyrazolo[3,4-b]pyridin-5-yl}-5-methyl-4-(propan-2-yl)-1H-pyrazol-3-yl)-2H-indazol-2-yl]-1-(4-fluorophenyl)ethan-1-ol]
29 | CC(C)c1nc2nn(C)cc2cc1-c1nc(-c2cccc3nn(CS(=O)(=O)c4ccccc4)cc23)c(C2CC2)n1C [Example 96, 2-[(Benzenesulfonyl)methyl]-4-{5-cyclopropyl-1-methyl-2-[2-methyl-6-(propan-2-yl)-2H-pyrazolo[3,4-b]pyridin-5-yl]-1H-imidazol-4-yl}-2H-indazole]
29 | Cc1nc2nn(Cc3cccnc3)cc2cc1-n1nc(-c2cccc3nn(C[C@H](O)c4ccccc4)cc23)c(C(C)C)c1C [Example 6, (1R)-2-[4-(5-methyl-1-{6-methyl-2-[(pyridin-3-yl)methyl]-2H-pyrazolo[3,4-b]pyridin-5-yl}-4-(propan-2-yl)-1H-pyrazol-3-yl)-2H-indazol-2-yl]-1-phenylethan-1-ol]
27 | Cc1nc2nn(CCCN3CCC(F)(F)C3)cc2cc1-n1nc(-c2cccc3nn(C[C@H](O)c4ccccc4)cc23)c(C(C)C)c1C [Example 40, (1R)-2-[4-(1-{2-[3-(3,3-difluoropyrrolidin-1-yl)propyl]-6-methyl-2H-pyrazolo[3,4-b]pyridin-5-yl}-5-methyl-4-(propan-2-yl)-1H-pyrazol-3-yl)-2H-indazol-2-yl]-1-phenylethan-1-ol]
29 | Cc1c(C2CC2)c(-c2c(F)ccc3nn(C[C@H](O)c4ccccc4)cc23)nn1-c1cc2cn(C)nc2nc1C1CC1 [Example 35, (1R)-2-[4-(4-cyclopropyl-1-{6-cyclopropyl-2-methyl-2H-pyrazolo[3,4-b]pyridin-5-yl}-5-methyl-1H-pyrazol-3-yl)-5-fluoro-2H-indazol-2-yl]-1-phenylethan-1-ol]
26 | Cc1nc2nn(CCCN3CCOCC3)cc2cc1-n1nc(-c2cccc3nn(C[C@H](F)c4ccccc4)cc23)c(C(C)C)c1C [Example 49, 2-[(2R)-2-fluoro-2-phenylethyl]-4-(5-methyl-1-{6-methyl-2-[3-(morpholin-4-yl)propyl]-2H-pyrazolo[3,4-b]pyridin-5-yl}-4-(propan-2-yl)-1H-pyrazol-3-yl)-2H-indazole]
26 | Cc1nc2nn(CC(O)CO)cc2cc1-n1nc(-c2cccc3nn(C[C@H](O)c4ccccc4)cc23)c(C(C)C)c1C (stereo partly drawn) [Example 67, 3-[5-(3-{2-[(2R)-2-hydroxy-2-phenylethyl]-2H-indazol-4-yl}-5-methyl-4-(propan-2-yl)-1H-pyrazol-1-yl)-6-methyl-2H-pyrazolo[3,4-b]pyridin-2-yl]propane-1,2-diol]
26 | Cc1nc2nn(C)cc2cc1-n1nc(-c2cccc3nn(C[C@H](O)c4ccc(F)c(F)c4)cc23)c(C(C)C)c1C [Example 44, (1R)-1-(3,4-difluorophenyl)-2-[4-(1-{2,6-dimethyl-2H-pyrazolo[3,4-b]pyridin-5-yl}-5-methyl-4-(propan-2-yl)-1H-pyrazol-3-yl)-2H-indazol-2-yl]ethan-1-ol]

Second part, the molecule before the results:

Compound | DSF [K]
CC(C)c1c(-c2cccc3nn(C[C@H](O)c4ccccc4)cc23)nc(-c2cc3cn(C)nc3cc2OC(F)(F)F)n1C [Example 109, (1R)-2-(4-{1-methyl-2-[2-methyl-6-(trifluoromethoxy)-2H-indazol-5-yl]-5-(propan-2-yl)-1H-imidazol-4-yl}-2H-indazol-2-yl)-1-phenylethan-1-ol] | 27
Cc1nc2nn(C)cc2cc1-n1nc(-c2cccc3nn(C[C@H](OCC(N)=O)c4ccccc4)cc23)c(C(C)C)c1C [Example 108, 2-[(1R) -2-[4-(1-{2,6-dimethyl-2H-pyrazolo[3,4-b]pyridin-5-yl}-5-methyl-4-(propan-2-yl)-1H-pyrazol-3-yl)-2H-indazol-2-yl]-1-phenylethoxy]acetamide] | 27
Cn1cc2cc(-c3nc(-c4cccc5nn(C[C@H](O)c6ccc(OCCC(C)(C)O)cc6)cc45)c(C4CC4)n3C)c(C3CC3)nc2n1 [Example 41, 4-{4-[(1R)-2-[4-(5-cyclopropyl-2-{6-cyclopropyl-2-methyl-2H-pyrazolo[3,4-b]pyridin-5-yl}-1-methyl-1H-imidazol-4-yl)-2H-indazol-2-yl]-1-hydroxyethyl]phenoxy}-2-methylbutan-2-ol] | 30
COc1ccc(Cn2cc3cc(-c4nc(-c5cccc6nn(C[C@H](O)c7ccccc7)cc56)c(C5CC5)n4C)c(C4CC4)nc3n2)cc1 [Example 9, (1R)-2-[4-(5-cyclopropyl-2-{6-cyclopropyl-2-[(4-methoxyphenyl)methyl]-2H-pyrazolo[3,4-b]pyridin-5-yl}-1-methyl-1H-imidazol-4-yl)-2H-indazol-2-yl]-1-phenylethan-1-ol] | 33
Cn1cc2cc(-c3nc(-c4cccc5nn(C[C@H](O)c6ccc(OC7COC7)cc6)cc45)c(C4CC4)n3C)c(C3CC3)nc2n1 [Example 69, (1R)-2-[4-(5-cyclopropyl-2-{6-cyclopropyl-2-methyl-2H-pyrazolo[3,4-b]pyridin-5-yl}-1-methyl-1H-imidazol-4-yl)-2H-indazol-2-yl]-1-[4-(oxetan-3-yloxy)phenyl]ethan-1-ol] | 29
Cc1c(C(C)C)c(-c2cccc3nn(C[C@H](O)c4ccccc4)cc23)nn1-c1cc2cn(C)nc2nc1C1CCOC1 (stereo partly drawn) [Example 47, (1R)-2-(4-{5-methyl-1-[2-methyl-6-(oxolan-3-yl)-2H-pyrazolo[3,4-b]pyridin-5-yl]-4-(propan-2-yl)-1H-pyrazol-3-yl}-2H-indazol-2-yl)-1-phenylethan-1-ol] | 30
Cn1c(-c2cc3cn(CCCN4CCCC4=O)nc3nc2C2CC2)nc(-c2cccc3nn(C[C@H](O)c4ccccc4)cc23)c1C1CC1 [Example 28, 1-{3-[6-cyclopropyl-5-(5-cyclopropyl-4-{2-[(2R)-2-hydroxy-2-phenylethyl]-2H-indazol-4-yl}-1-methyl-1H-imidazol-2-yl)-2H-pyrazolo[3,4-b]pyridin-2-yl]propyl}pyrrolidin-2-one] | 31
COCc1nc2nn(C)cc2cc1-n1nc(-c2cccc3nn(C[C@H](O)c4ccccc4)cc23)c(C(C)C)c1C [Example 17, (1R)-2-(4-{1-[6-(methoxymethyl)-2-methyl-2H-pyrazolo[3,4-b]pyridin-5-yl]-5-methyl-4-(propan-2-yl)-1H-pyrazol-3-yl}-2H-indazol-2-yl)-1-phenylethan-1-ol] | 27
